# Reference: ChEMBL document CHEMBL1201862, “PubChem BioAssay data set” (2004)
#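 Cultured in 96-well plates, cells were exposed to test compound for 48 hours across five concentrations. At the GI50, growth is halved.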 Calls of active or inactive are those of the source. Rule as the data show it: active = GI50 up to about 1.1 µM and inactive = higher.
# Assays:
# Assay in all cases: NCI-60 cell line screen, 48 h
# [1] = test system: KM-20L2
# [2] = test system: M19-MEL
# [3] = test system: SNB-78
# [4] = test system: LXFL 529
# [5] = test system: DMS-114
# [6] = test system: DMS-273
# [7] = test system: DLD-1
# [8] = test system: XF498
# [9] = test system: RXF 631
SMILES,GI50 [1],GI50 [2],GI50 [3],GI50 [4],GI50 [5],GI50 [6],GI50 [7],GI50 [8],GI50 [9]
Cc1ccc([S+]([O-])C(C)C(Cl)c2ccccc2)cc1 (stereo not drawn),> 100 µM (inactive),54.3 µM (inactive),> 100 µM (inactive),81.1 µM (inactive),28.2 µM (inactive),> 100 µM (inactive),> 100 µM (inactive),–,–
N#Cc1c2ccccc2cn1-c1ccc(F)cc1,31.9 µM (inactive),37.8 µM (inactive),–,31.3 µM (inactive),16.2 µM (inactive),> 10 µM (inactive),48.8 µM (inactive),42.2 µM (inactive),–
CC(=O)NC1C(OCc2ccccc2)OC(COC(=O)CCCCCCCCCCNC(=O)c2cccc3c(=O)c4ccccc4[nH]c23)C(O)C1OC(C)C(=O)NC(C)C(=O)NC(CCC(N)=O)C(N)=O (stereo not drawn),> 100 µM (inactive),75.5 µM (inactive),99.1 µM (inactive),37.3 µM (inactive),36.3 µM (inactive),57.8 µM (inactive),95.9 µM (inactive),38.7 µM (inactive),19.5 µM (inactive)
CC(=O)OCC1C(=O)OCC1C(=O)N1Cc2cc3ccccc3nc2C1 (stereo not drawn),3.84 µM (inactive),8.05 µM (inactive),–,1.8 µM (inactive),13.6 µM (inactive),5.09 µM (inactive),1.61 µM (inactive),1.82 µM (inactive),–
N#Cc1c2c(c(N=[N+]=[N-])n3c1nc1ccccc13)CCCC2,2.24 µM (inactive),1.75 µM (inactive),3.56 µM (inactive),–,1.19 µM (inactive),2.37 µM (inactive),1.39 µM (inactive),1.75 µM (inactive),–
[N-]=[N+]=NC1C(Br)C(=O)NC(=O)N1[C@H]1C[C@H](O)[C@@H](CO)O1 (stereo partly drawn),> 100 µM (inactive),–,> 100 µM (inactive),> 100 µM (inactive),–,> 100 µM (inactive),> 100 µM (inactive),> 100 µM (inactive),–
Cc1cc2c([nH]c3ccccc32)c2c1OC(C)(C)C1C3CC(C)(C)Oc4c(C)cc5c6ccccc6n(c5c43)C21 (stereo not drawn),> 100 µM (inactive),> 100 µM (inactive),> 100 µM (inactive),> 100 µM (inactive),> 100 µM (inactive),> 100 µM (inactive),–,–,–
N/N=c1\c2ccccc2c2cc3c(cc12)/c(=N/N)c1ccccc13,> 100 µM (inactive),> 100 µM (inactive),> 100 µM (inactive),> 100 µM (inactive),> 100 µM (inactive),> 100 µM (inactive),> 100 µM (inactive),–,> 100 µM (inactive)
COc1ccc2nc3ccccc3c(NCCCCCN(CCCl)CCCl)c2c1,0.0647 µM (active),0.116 µM (active),0.277 µM (active),0.112 µM (active),0.073 µM (active),< 0.0365 µM (active),–,0.051 µM (active),–
CC(C)C/C(CC(=O)CCC(=O)Nc1ccccc1[N+](=O)[O-])=N\NC(=O)c1cc2ccccc2cc1O,32.1 µM (inactive),24.2 µM (inactive),–,29.7 µM (inactive),36.1 µM (inactive),–,55.2 µM (inactive),30.7 µM (inactive),31.2 µM (inactive)
O=C(CSc1nnc(-c2ccc(/N=C\c3ccc(Cl)cc3)cc2)o1)Nc1ccc(Cl)cc1,> 100 µM (inactive),> 100 µM (inactive),> 100 µM (inactive),> 100 µM (inactive),> 100 µM (inactive),> 100 µM (inactive),–,> 100 µM (inactive),–
N#C/C(=C/c1cccnc1)C(=O)c1ccccc1,> 100 µM (inactive),> 100 µM (inactive),> 100 µM (inactive),> 100 µM (inactive),> 100 µM (inactive),> 100 µM (inactive),> 100 µM (inactive),> 100 µM (inactive),–
O=C(COC(=O)c1cccc2c(=O)c3ccccc3[nH]c12)Nc1ccccc1,79.6 µM (inactive),33.6 µM (inactive),–,28.6 µM (inactive),22.3 µM (inactive),58.1 µM (inactive),65 µM (inactive),32.1 µM (inactive),28.5 µM (inactive)
CSc1nc(SC)c2c(C(N)=S)n[nH]c2n1,23.1 µM (inactive),28.2 µM (inactive),31.8 µM (inactive),29.6 µM (inactive),30.1 µM (inactive),30 µM (inactive),37 µM (inactive),–,32 µM (inactive)
Cc1cc2c(c3nocc13)C(=O)c1ccccc1C2=O,> 100 µM (inactive),> 100 µM (inactive),–,> 100 µM (inactive),> 100 µM (inactive),> 100 µM (inactive),> 100 µM (inactive),–,> 100 µM (inactive)
O=c1c2ccccc2nc(-c2ccccc2)n1NC(=S)Nc1ccc(Cl)cc1,–,52.6 µM (inactive),–,48.6 µM (inactive),34.4 µM (inactive),> 100 µM (inactive),> 100 µM (inactive),–,–
COc1cc(/C=C/c2ccc(OC)c(OC)c2OC)cc(OC)c1OC,20.2 µM (inactive),20.2 µM (inactive),17.3 µM (inactive),17.3 µM (inactive),18.2 µM (inactive),16.4 µM (inactive),18.3 µM (inactive),25.5 µM (inactive),20 µM (inactive)
COC(=O)c1cc2c(c(C(=O)OC)c1O)C(=O)C=CC2=O,> 41.6 µM (inactive),> 43.8 µM (inactive),> 42.8 µM (inactive),11.6 µM (inactive),> 48.6 µM (inactive),34.1 µM (inactive),> 21.5 µM (inactive),> 9.1 µM (inactive),34.8 µM (inactive)
CCOC(=O)/C(=C\c1ccc(N(CCC#N)CCC#N)cc1)NC(=O)c1cc([N+](=O)[O-])ccc1Cl,> 100 µM (inactive),> 100 µM (inactive),> 100 µM (inactive),> 100 µM (inactive),> 100 µM (inactive),> 100 µM (inactive),> 100 µM (inactive),–,> 100 µM (inactive)
CCCCCCCCCCCCCC(=O)OC(/C=C/C(C)C)C(O)C(O)C(OC)C(=O)NC1CCCCNC1=O (stereo not drawn),1.46 µM (inactive),–,2.82 µM (inactive),1.39 µM (inactive),0.615 µM (active),0.0916 µM (active),0.637 µM (active),1.78 µM (inactive),–
COc1ccc(C2CC(c3cc(C)ccc3O)=NC(N)=N2)cc1 (stereo not drawn),> 100 µM (inactive),> 100 µM (inactive),> 100 µM (inactive),> 100 µM (inactive),> 100 µM (inactive),> 100 µM (inactive),> 100 µM (inactive),> 100 µM (inactive),–
S=c1cc(S)c2c(=S)sc3nc4ccccn4c(=S)c3c2s1,46.3 µM (inactive),35.5 µM (inactive),> 100 µM (inactive),–,7.03 µM (inactive),63.4 µM (inactive),> 100 µM (inactive),> 100 µM (inactive),–
CC[S+](C)c1ccc(-c2c3nc(c(-c4ccc([S+](C)CC)cc4)c4ccc([nH]4)c(-c4ccc([S+](C)CC)cc4)c4nc(c(-c5ccc([S+](C)CC)cc5)c5ccc2[nH]5)C=C4)C=C3)cc1.[O-][Cl+3]([O-])([O-])[O-].[O-][Cl+3]([O-])([O-])[O-].[O-][Cl+3]([O-])([O-])[O-].[O-][Cl+3]([O-])([O-])[O-] (stereo not drawn),14.1 µM (inactive),40.9 µM (inactive),56.2 µM (inactive),10.1 µM (inactive),–,34.4 µM (inactive),–,0.881 µM (active),–
